Patent EP0528030B1, “ANTITUMOR BE-13793C DERIVATIVE” (BANYU PHARMACEUTICAL CO., LTD., priority 1990, dated 1991)
Converted amounts (≈) assume the structure as drawn.

Experiments:
Type in all cases: cell-based
[1] = test system: human gastric cancer cell MKN45; experiment: Cancer cell proliferation inhibition (sulforhodamine B staining), MKN45; conditions: MKN-45, 72 hours culture with test solution, DMEM medium containing 10% fetal bovine serum
Experimental: (§1) A test compound (20 mg) was dissolved in dimethyl sulfoxide (1 ml) and successively diluted into test solutions.
(§2) DMEM medium containing 10% fetal bovine serum was used for a human gastric cancer cell MKN45 and a human colon cancer cell LS180, and […] medium containing 10% fetal bovine serum was used for human lung cancer PC13.
(§3) 100 µl portions of the cell-culturing medium containing 3×10^3 cancer cells were put in a 96-hole microplate, culture was carried out under 5% CO2 at 37°C for 24 hours, 11 µl portions of the above test solution were added, the mixtures were subjected to culture under 5% CO2 at 37°C for further 72 hours, and then the cells were fixated with 50% trichloroacetic acid and stained with 0.4% sulforhodamine B. The dye was extracted from the stained cells with 10 mM Tris solution, and absorbance at 540 nm was measured and compared with that in the control group. […]

human lung cancer PC13 = experiment: Cancer cell proliferation inhibition (sulforhodamine B staining), PC13; conditions: PC-13, 72 hours culture with test solution, RPMI-160 medium containing 10% fetal bovine serum
Experimental: as §1, §2, §3

[2] = test system: human colon cancer cell LS180; experiment: Cancer cell proliferation inhibition (sulforhodamine B staining), LS180; conditions: 72 hours culture with test solution, DMEM medium containing 10% fetal bovine serum
Experimental: as §1, §2, §3

| IC50 [1] | IC50 (human lung cancer PC13) | IC50 [2] | Compound |
| --- | --- | --- | --- |
| > 50 µg/mL | 12.5 µg/mL (≈ 35 µM) | > 50 µg/mL | O=C1NC(=O)c2c1c1c3cccc(O)c3[nH]c1c1[nH]c3c(O)cccc3c21 [BE-13793C, 12,13-dihydro-1,11-dihydroxy-5H-indolo[2,3-a]pyrrolo[3,4-c]-carbazole-5,7(6H)-dione] |
| 0.28 µg/mL (≈ 0.539 µM) | 1.7 µg/mL (≈ 3.27 µM) | 1.65 µg/mL (≈ 3.18 µM) | O=C1NC(=O)c2c1c1c3cccc(O)c3[nH]c1c1c2c2cccc(O)c2n1[C@@H]1O[C@H](CO)[C@@H](O)[C@H](O)[C@H]1O [Example 1, 12,13-dihydro-1,11-dihydroxy-13-(β-D-glucopyranosyl)-5H-indolo[2,3-a]pyrrolo[3,4-c]carbazole-5,7(6H)-dione] |
